Results published in patent US20100041892A1, “Therapeutic agent for diabetes” (priority 2005, published 2010).

Row | melting point | SMILES
1 | 136.9 to 137.1 °C | CCCCCS(=O)(=O)NC(=O)CC(C)c1ccc(OCCOC)cc1Oc1ncc(C(F)(F)F)cc1Cl (stereo not shown) [Example 77, 3-[2-{[3-chloro-5-(trifluoromethyl)pyridin-2-yl]oxy}-4-(2-methoxyethoxy)phenyl]-N-(pentylsulfonyl)butanamide]
2 | 107 to 109 °C | COCCCS(=O)(=O)NC(=O)CC(C)c1ccc(OCCOC)cc1Oc1ncc(C(F)(F)F)cc1Cl (stereo not shown) [Example 78, 3-[2-{[3-chloro-5-(trifluoromethyl)pyridin-2-yl]oxy}-4-(2-methoxyethoxy)phenyl]-N-[(3-methoxypropyl)sulfonyl]butanamide]
3 | 107 to 108 °C | CCCCCS(=O)(=O)NC(=O)CCc1cc(OC(C)C)nn1Cc1ccc(F)cc1F [Example 80, 3-[1-(2,4-difluorobenzyl)-3-isopropoxy-1H-pyrazol-5-yl]-N-(pentylsulfonyl)propanamide]
4 | 184 to 185 °C | CC(C)Oc1cc(CCC(=O)NS(=O)(=O)c2ccccc2)n(Cc2ccc(Cl)cc2Cl)n1 [Example 82, 3-[1-(2,4-dichlorobenzyl)-3-isopropoxy-1H-pyrazol-5-yl]-N-(phenylsulfonyl)propanamide]
5 | 167 to 169 °C | CC(C)Oc1cc(CCC(=O)NS(=O)(=O)c2ccc(C(F)(F)F)cc2)n(Cc2ccc(Cl)cc2Cl)n1 [Example 83, 3-[1-(2,4-dichlorobenzyl)-3-isopropoxy-1H-pyrazol-5-yl]-N-{[4-(trifluoromethyl)phenyl]sulfonyl}propanamide]
6 | 124 to 126 °C | CCCS(=O)(=O)NC(=O)CCc1cc(OC(C)C)nn1Cc1ccc(Cl)cc1Cl [Example 85, 3-[1-(2,4-dichlorobenzyl)-3-isopropoxy-1H-pyrazol-5-yl]-N-(propylsulfonyl)propanamide]
7 | 103 to 106 °C | CCCCCCS(=O)(=O)NC(=O)CCc1cc(OC(C)C)nn1Cc1ccc(Cl)cc1Cl [Example 87, 3-[1-(2,4-dichlorobenzyl)-3-isopropoxy-1H-pyrazol-5-yl]-N-(hexylsulfonyl)propanamide]
8 | 165 to 166 °C | Cc1ccccc1S(=O)(=O)NC(=O)CCc1cc(OC(C)C)nn1Cc1ccc(Cl)cc1Cl [Example 88, 3-[1-(2,4-dichlorobenzyl)-3-isopropoxy-1H-pyrazol-5-yl]-N-[(2-methylphenyl)sulfonyl]propanamide]
9 | 135 to 136 °C | CC(C)Oc1cc(CCC(=O)NS(=O)(=O)C(C)C)n(Cc2ccc(Cl)cc2Cl)n1 [Example 89, 3-[1-(2,4-dichlorobenzyl)-3-isopropoxy-1H-pyrazol-5-yl]-N-(isopropylsulfonyl)propanamide]
10 | 137 to 138 °C | CC(C)Oc1cc(CCC(=O)NS(=O)(=O)C2CCCCC2)n(Cc2ccc(Cl)cc2Cl)n1 [Example 90, N-(cyclohexylsulfonyl)-3-[1-(2,4-dichlorobenzyl)-3-isopropoxy-1H-pyrazol-5-yl]propanamide]
11 | 132 to 134 °C | CC(C)Oc1cc(CCC(=O)NS(=O)(=O)CCCc2ccccc2)n(Cc2ccc(Cl)cc2Cl)n1 [Example 91, 3-[1-(2,4-dichlorobenzyl)-3-isopropoxy-1H-pyrazol-5-yl]-N-[(3-phenylpropyl)sulfonyl]propanamide]
12 | 143 to 145 °C | CC(C)CCS(=O)(=O)NC(=O)CCc1cc(OC(C)C)nn1Cc1ccc(Cl)cc1Cl [Example 92, 3-[1-(2,4-dichlorobenzyl)-3-isopropoxy-1H-pyrazol-5-yl]-N-[(3-methylbutyl)sulfonyl]propanamide]
13 | 156 to 158 °C | CCCCCS(=O)(=O)NC(=O)CCc1cc(OCc2nnc(C)o2)nn1Cc1ccc(Cl)cc1Cl [Example 105, 3-{1-(2,4-dichlorobenzyl)-3-[(5-methyl-1,3,4-oxadiazol-2-yl)methoxy]-1H-pyrazol-5-yl}-N-(pentylsulfonyl)propanamide]
14 | 82 to 85 °C | CCCCCS(=O)(=O)NC(=O)/C=C/c1cc(OCCOC)nn1Cc1ccc(Cl)cc1Cl [Example 109, (2E)-3-[1-(2,4-dichlorobenzyl)-3-(2-methoxyethoxy)-1H-pyrazol-5-yl]-N-(pentylsulfonyl)acrylamide]
15 | 110 to 114 °C | COCCOc1cc(/C=C/C(=O)NS(=O)(=O)CCC(C)C)n(Cc2ccc(Cl)cc2Cl)n1 [Example 110, (2E)-3-[1-(2,4-dichlorobenzyl)-3-(2-methoxyethoxy)-1H-pyrazol-5-yl]-N-[(3-methylbutyl)sulfonyl]acrylamide]
16 | 144 to 147 °C | CCCCCS(=O)(=O)NC(=O)/C=C/c1cc(OCC2(C)COC2)nn1Cc1ccc(C(F)(F)F)cc1Cl [Example 113, (2E)-3-{1-[2-chloro-4-(trifluoromethyl)benzyl]-3-[(3-methyloxetan-3-yl)methoxy]-1H-pyrazol-5-yl}-N-(pentylsulfonyl)acrylamide]
17 | 138 to 139 °C | COCCCS(=O)(=O)NC(=O)/C=C/c1cc(OC(C)C)nn1Cc1ccc(C(F)(F)F)cc1Cl [Example 115, (2E)-3-{1-[2-chloro-4-(trifluoromethyl)benzyl]-3-isopropoxy-1H-pyrazol-5-yl}-N-[(3-methoxypropyl)sulfonyl]acrylamide]
18 | 154 to 157 °C | CCCCCS(=O)(=O)NC(=O)/C=C/c1cc(OC2CCOCC2)nn1Cc1ccc(Cl)cc1Cl [Example 116, (2E)-3-[1-(2,4-dichlorobenzyl)-3-(tetrahydro-2H-pyran-4-yloxy)-1H-pyrazol-5-yl]-N-(pentylsulfonyl)acrylamide]

The remaining lines, values behind:

Row | SMILES | melting point
19 | CCCCCNS(=O)(=O)NC(=O)OCc1ccc(OCCOC)cc1Oc1ncc(C(F)(F)F)cc1Cl [Example 61, 2-{[3-chloro-5-(trifluoromethyl)pyridin-2-yl]oxy}-4-(2-methoxyethoxy)benzyl [(pentylamino)sulfonyl]carbamate] | 153 to 155 °C
20 | CCCCCS(=O)(=O)NC(=O)OCc1ccc(OCCCC)cc1Oc1ncc(C(F)(F)F)cc1Cl [Example 62, 4-butoxy-2-{[3-chloro-5-(trifluoromethyl)pyridin-2-yl]oxy}benzyl (pentylsulfonyl)carbamate] | 124.5 to 125.5 °C
21 | CCCCCS(=O)(=O)NC(=O)OCc1ccc(OC(C)C)cc1Oc1ncc(C(F)(F)F)cc1Cl [Example 63, 2-{[3-chloro-5-(trifluoromethyl)pyridin-2-yl]oxy}-4-isopropoxybenzyl (pentylsulfonyl)carbamate] | 70 to 73 °C
22 | COCCOc1ccc(COC(=O)NS(=O)(=O)c2ccc(Cl)cc2)c(Oc2ncc(C(F)(F)F)cc2Cl)c1 [Example 65, 2-{[3-chloro-5-(trifluoromethyl)pyridin-2-yl]oxy}-4-(2-methoxyethoxy)benzyl [(4-chlorophenyl)sulfonyl]carbamate] | 112 to 115 °C
23 | CCCCNS(=O)(=O)NC(=O)OCc1ccc(OCCOC)cc1Oc1ncc(C(F)(F)F)cc1Cl [Example 66, 2-{[3-chloro-5-(trifluoromethyl)pyridin-2-yl]oxy}-4-(2-methoxyethoxy)benzyl [(butylamino)sulfonyl]carbamate] | 164 to 165 °C
24 | COCCOc1ccc(COC(=O)NS(=O)(=O)NCC2CC2)c(Oc2ncc(C(F)(F)F)cc2Cl)c1 [Example 67, 2-{[3-chloro-5-(trifluoromethyl)pyridin-2-yl]oxy}-4-(2-methoxyethoxy)benzyl {[(cyclopropylmethyl)amino]sulfonyl}carbamate] | 150 to 150.5 °C
25 | COCCOc1ccc(COC(=O)NS(=O)(=O)Nc2ccc(Cl)cc2)c(Oc2ncc(C(F)(F)F)cc2Cl)c1 [Example 68, 2-{[3-chloro-5-(trifluoromethyl)pyridin-2-yl]oxy}-4-(2-methoxyethoxy)benzyl {[(4-chlorophenyl)amino]sulfonyl}carbamate] | 159 °C (dec.)
26 | COCCOc1ccc(CCC(=O)NS(N)(=O)=O)c(Oc2ncc(C(F)(F)F)cc2Cl)c1 [Example 73, N-(aminosulfonyl)-3-[2-{[3-chloro-5-(trifluoromethyl)pyridin-2-yl]oxy}-4-(2-methoxyethoxy)phenyl]propanamide] | 158 to 159 °C
27 | CCCCCS(=O)(=O)NC(=O)CCCc1ccc(OCCOC)cc1Oc1ncc(C(F)(F)F)cc1Cl [Example 74, 4-[2-{[3-chloro-5-(trifluoromethyl)pyridin-2-yl]oxy}-4-(2-methoxyethoxy)phenyl]-N-(pentylsulfonyl)butanamide] | 96 to 97 °C
28 | COCCCNS(=O)(=O)NC(=O)OCc1ccc(OCCOC)cc1Oc1ncc(C(F)(F)F)cc1Cl [Example 75, 2-{[3-chloro-5-(trifluoromethyl)pyridin-2-yl]oxy}-4-(2-methoxyethoxy)benzyl {[(3-methoxypropyl)amino]sulfonyl}carbamate] | 149 to 149.5 °C
29 | CCOCCNS(=O)(=O)NC(=O)OCc1ccc(OCCOC)cc1Oc1ncc(C(F)(F)F)cc1Cl [Example 76, 2-{[3-chloro-5-(trifluoromethyl)pyridin-2-yl]oxy}-4-(2-methoxyethoxy)benzyl {[(2-ethoxyethyl)amino]sulfonyl}carbamate] | 142.5 to 143 °C
30 | CCCCCS(=O)(=O)NC(=O)/C=C/c1cc(OCCCC)nn1Cc1ccc(Cl)cc1Cl [Example 98, (2E)-3-[3-butoxy-1-(2,4-dichlorobenzyl)-1H-pyrazol-5-yl]-N-(pentylsulfonyl)acrylamide] | 95 to 98 °C
31 | CCCCOc1cc(/C=C/C(=O)NS(=O)(=O)CCC(C)C)n(Cc2ccc(Cl)cc2Cl)n1 [Example 99, (2E)-3-[3-butoxy-1-(2,4-dichlorobenzyl)-1H-pyrazol-5-yl]-N-[(3-methylbutyl)sulfonyl]acrylamide] | 119 to 120 °C
32 | CCCCCS(=O)(=O)NC(=O)/C=C/c1cc(OCCCC)nn1Cc1ccc(C(F)(F)F)cc1 [Example 103, (2E)-3-{3-butoxy-1-[4-(trifluoromethyl)benzyl]-1H-pyrazol-5-yl}-N-(pentylsulfonyl)acrylamide] | 159 to 160 °C
33 | CCCCCS(=O)(=O)NC(=O)/C=C/c1cc(OCCCC)nn1Cc1ccc(C(F)(F)F)cc1Cl [Example 106, (2E)-3-{3-butoxy-1-[2-chloro-4-(trifluoromethyl)benzyl]-1H-pyrazol-5-yl}-N-(pentylsulfonyl)acrylamide] | 130 to 132 °C
34 | CCCCCS(=O)(=O)NC(=O)CCc1cc(OCCCC)nn1Cc1ccc(C(F)(F)F)cc1Cl [Example 107, 3-{3-butoxy-1-[2-chloro-4-(trifluoromethyl)benzyl]-1H-pyrazol-5-yl}-N-(pentylsulfonyl)propanamide] | 131 to 133 °C
